From US20020077291A1, “Method of treatment of tumors using transforming growth factor-alpha” (priority 2000, published 2002)

What was measured:
[1] = background statement; cited from earlier work
[2] = Toxicity (body weight, death) in tumor-bearing nude mice of the A431 model; format: in vivo
Source text: (§1) Using a nude mouse model and human epidermal cancer cell tumor (A-431), having 10^7 or greater EGF receptors, the inventors investigated whether TGF-alpha would promote tumor growth. […] In a further parallel experiment, the inventors investigated whether TGF-alpha would directly influence the survival of the tumor. […] Five mice in three of the four groups were sacrificed at this time. […] Phase 3 began on day 20.
(§2) PHASE 1 :On day 1 all animals were orthotopically implanted with tumor in their breast fat flaps (2-3 tumor tissue specimens per animal). On day 3 in the morning the tumor was measured in all animals. Then animals from group B and D received the first injection of TGF-alpha, animals from group A and C received placebo.
(§3) TGF-alpha was injected at a concentration of 1 microgram per mouse (assuming mouse weighs 20 gram) or 50 microgram per kg.
(§4) Phase 2. […] On day 10, day 11, day 12 and day 13 animals from group B and D received additional TGF-alpha injections spaced 24 hours from the 9th day administration; animals from group A and C receive placebo at the same time.
Phase 3. On day 20 in the morning the tumor load was measured in all remaining animals according to anticancer procedure. Each group of 10 (groups A, B, C, D) mice were divided into two subgroups: for phase 3A, 5 animals in each group were maintained with no further treatments). For phase 3B, 5 animals from original groups B and D received another injection of TGF-alpha and animals from original group A and C received placebo. […] On day 21, 22, 23 and 24 the five animals from original groups B and D received additional TGF-alpha injections spaced 24 hours from the 20th day of administration; the five selected animals from original group a and c received placebo at the same time. The experiment was terminated on day 26.
body weight—daily for all animals

[3] = tested on: EGF receptor family (e.g., ErbB1 through 4); conditions: background statement; cited from earlier work
[4] = tested on: human epidermal cancer cell tumor (A-431); experiment: Effect of TGF-α and cisplatin on tumor growth in the A431 human epidermal cancer MetaMouse model; format: in vivo, nude mice; conditions: FIGS. 1 and 3; for tumor growth (mean tumor volume): A431 tumor orthotopically implanted in nude mice, cisplatinum 10 mg/kg days 3, 9 (20), TGF-alpha 50 ug/kg days 3-7, 9-13 (20-24), 26 days; for tumor growth inhibition compared with cisplatinum treatment: TGF-alpha alone 50 ug/kg vs cisplatinum 10 mg/kg, A431 model
Procedure: as §1, with “growth. In a parallel experiment, the tumor was treated with a chemotherapeutic agent, cisplatinum.” for “growth.”
The study consisted of four groups of nude mice:
1. Group A—control (15 animals); this group was implanted with tumor and treated only with placebo (according to TGF-injection schedule).
2. Group B—TGF-controls (10 animals); this group was implanted with tumor and received only TGF-injection (according to TGF-injection schedule).
as §2, with “placebo. Six hours later animals from group C and D received cisplatin injection.” for “placebo.”
as §3
On day 4, day 5, day 6 and day 7 animals from group B and D received additional TGF-alpha injections spaced 24 hours from the first administration; at the same time, animals from group A and C received placebo.
On day 6 the tumor load in all animals was measured again.
On day 8, five animals were randomly selected from group A, C and D for sacrifice. Their tumor load was measured again, their blood drawn and their intestines, kidneys and spleen removed and preserved. The spleen weight was determined at the time of collection.
as §4
On day 12 the tumor load in all animals was measured again. On day 15 […]. their tumor load was measured again, their blood drawn and their intestines, kidneys and spleen removed and preserved. The spleen weight was determined at the time of collection.
Phase 3. On day 20 in the morning the tumor load was measured in all remaining animals according to anticancer procedure. Each group of 10 (groups A, B, C, D) mice were divided into two subgroups: for phase 3A, 5 animals in each group were maintained with no further treatments). […]

| Compound | acid and heat stability [1] | protection against death caused by the third treatment of cisplatinum ([2]; TGF-alpha 50 ug/kg days 20-24 with cisplatinum 10 mg/kg day 20, FIG. 4) | protection against toxicity of cisplatinum ([2]; TGF-alpha 50 ug/kg given with cisplatinum 10 mg/kg, FIGS. 2 and 4) | body weight ([2]; mean body weight, daily, 26 days, FIGS. 2 and 4, cisplatin effect at the third treatment (day 20)) | binding affinity [3] | tumor growth (mean tumor volume) [4] | tumor growth inhibition compared with cisplatinum treatment [4] | tumor growth inhibition compared with cisplatinum treatment ([4]; listed as TGF-α) |
| --- | --- | --- | --- | --- | --- | --- | --- | --- |
| transforming growth factor alpha [TGF-alpha] | acid and heat stable | protected against the death | protected against toxicity of cisplatinum | no effect on body weight | high affinity in the nanomolar range | inhibited tumor growth | to the same degree as cisplatinum treatment | as effective as cisplatin |
| N.N.[Cl][Pt][Cl] [cisplatinum, cisplatin, reference compound] |  |  |  |  |  | more effective than the control |  |  |
